Source: patent US20250082633A1, “COMPOUNDS AND METHODS FOR MODULATING SPLICING” (REMIX THERAPEUTICS INC., priority 2021, published 2025)

What was measured:
SMN2 mRNA = experiment: RT-qPCR splicing assay, gene panel, SMN2 canonical junction (CJ) mRNA; assay type: cell-based; details: Homo sapiens; decrease in CJ mRNA levels; larger panel of genes; Table 3; read-out: SMN2 CJ IC50
Outline: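 A673 (DMEM/10% FBS) or K562 (IMDM/10% FBS) cells were treated 24 h at 37 °C with an 11-point 3-fold dilution series, top final 10 uM, DMSO ≤0.25%. Lysates underwent one-step RT-qPCR for the canonical-junction isoform with GAPDH, GUSB or PPIA as housekeeper. ΔΔCt versus DMSO was converted to RQ (2^−ΔΔCt), then to percent response.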

K562 cells = experiment: Cell Titer Glo 2.0 cell viability assay; assay type: cell-based; details: Homo sapiens, 500 cells/well, 72 hours
Outline: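 K562 cells (500/well) in IMDM with 10% FBS were exposed to serially diluted compounds at 0.1% DMSO final. After 72 h at 37° C, 5% CO2, viability was read by CellTiter-Glo 2.0 luminescence, with medium-only blanks.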

Compound | IC50 (SMN2 mRNA) [nM] | GI50 (K562 cells) [nM]
Cc1cn2nc(-c3cc(F)c4nn([C@H]5CCNC6(CC6)C5)cc4c3)cc(C)c2n1 [Compound 172] | < 100 | 100 to 1000
Cc1cc(-c2cc(F)c3nn(C4CCNCC4)cc3c2)cc2cn(C)nc12 [Compound 133, 5-(2,7-dimethylindazol-5-yl)-7-fluoro-2-(4-piperidyl)indazole] | < 100 | 100 to 1000
Cc1c(O)c(-c2ccc3nn(C4CCNCC4)cc3n2)cc2cn(C)nc12 [Compound 109, 2,7-dimethyl-5-[2-(4-piperidyl)pyrazolo[4,3-b]pyridin-5-yl]indazol-6-ol] | < 100 | 100 to 1000
Cn1cc2cc(-c3cc(F)c4nn(C5CCNCC5)nc4c3)cc(F)c2n1 [Compound 103, 4-fluoro-6-(7-fluoro-2-methyl-indazol-5-yl)-2-(4-piperidyl) benzotriazole] | 100 to 1000 | 1000 to 10000
Cc1nc2c(F)cc(-c3cc(F)c4nn(C5CCNCC5)cc4c3)cc2o1 [Compound 136, 4-fluoro-6-[7-fluoro-2-(4-piperidyl)indazol-5-yl]-2-methyl-1,3-benzoxazole] | < 100 | 100 to 1000

The next lines start with the values.

IC50 (SMN2 mRNA) [nM] | GI50 (K562 cells) [nM] | Compound
1000 to 10000 | 1000 to 10000 | Cc1c(O)c(-c2ccc3nn(C4CCNCC4)nc3n2)cc2cn(C)nc12 [Compound 113, 2,7-dimethyl-5-[2-(4-piperidyl)triazolo[4,5-b]pyridin-5-yl]indazol-6-ol]
< 100 | 100 to 1000 | Cc1cn2nc(-c3cc(F)c4nn(C5CCNC6(CCC6)C5)cc4c3)cc(C)c2n1 (stereo not drawn) [Compound 189, 6-[2-(5-azaspiro[3.5]nonan-8-yl)-7-fluoro-indazol-5-yl]-2,8-dimethyl-imidazo[1,2-b]pyridazine]
> 10000 | > 10000 | COc1cc2nn(C3CCNCC3)cc2cc1-c1cc(C)c2nc(C)cn2n1 [Compound 159, 6-(6-methoxy-2-(piperidin-4-yl)-2H-indazol-5-yl)-2,8-dimethylimidazo[1,2-b]pyridazine]
100 to 1000 | 100 to 1000 | Cc1cn2nc(-c3cc4cn(C5CCNCC5)nc4cn3)cc(C)c2n1 [Compound 147, 2,8-dimethyl-6-[2-(4-piperidyl)pyrazolo[3,4-c]pyridin-5-yl]imidazo[1,2-b]pyridazine]
100 to 1000 | 100 to 1000 | Cn1cc2cc(-c3cc(F)c4nn(C5CCNC6(CC6)C5)cc4c3)cc(F)c2n1 (stereo not drawn) [Compound 108, 2-(4-azaspiro[2.5]octan-7-yl)-7-fluoro-5-(7-fluoro-2-methyl-indazol-5-yl)indazole]
100 to 1000 | 1000 to 10000 | Cc1cn2nc(-c3cc(O)c4nn(C5CCNCC5)cc4c3)cc(C)c2n1 [Compound 156, 5-(2,8-dimethylimidazo[1,2-b]pyridazin-6-yl)-2-(piperidin-4-yl)-2H-indazol-7-ol]
1000 to 10000 | 1000 to 10000 | COC1=C(C)C2N=C(C)OC2C=C1c1cc(F)c2nn(C3CCNCC3)cc2n1 (stereo not drawn) [Compound 144]
